# Assay results from ChEMBL document CHEMBL4651402, “Screening of ~5500 FDA-approved drugs and clinical candidates for anti-SARS-CoV-2 activity” (2021).
# System: SARS-CoV-2
# Assay: microbe, parasite or virus in culture
# Conditions: Severe acute respiratory syndrome coronavirus 2, Vero C1008, 48 h
SMILES,IC50 [µM],IC50 (read-out: pIC50 (converted)) [µM]
CCc1c(C)[nH]c2c1C(=O)C(CN1CCOCC1)CC2 (centres undefined) [MOLINDONE],> 20,> 20
N=C(N)NN [PIMAGEDINE],> 20,> 20
COc1cc2ncnc(Nc3ccc(F)c(Cl)c3)c2cc1NC(=O)/C=C/CN1CCCCC1 [DACOMITINIB ANHYDROUS],> 20,> 20
COc1ccc(Cl)c2c1CCCC2N(C)C (centres undefined) [LOMETRALINE],> 20,> 20
CC1(C)C2=CCC3C(CCC4(C)C3CC[C@]4(C)O)C2(C)Cc2cnoc21 (some centres undefined),> 20,> 20
Nc1nc2c(ncn2COC(CO)CO)c(=O)[nH]1 [GANCICLOVIR],> 20,> 20
CN(C)C(=O)Oc1cccc([N+](C)(C)C)c1 [NEOSTIGMINE],> 20,> 20
O=C(O)Cc1cccc(-c2cc(CCCCCCc3ccc(O[C@H]4O[C@H](CO)[C@@H](O)[C@H](O)[C@@H]4O)c(-c4cccc(CC(=O)O)c4)c3)ccc2O[C@H]2O[C@H](CO)[C@@H](O)[C@H](O)[C@@H]2O)c1 [BIMOSIAMOSE],> 20,> 20
Cc1cccc(N2CC(CO)OC2=O)c1 (centres undefined) [TOLOXATONE],> 20,> 20
Cc1c(CN2CCN(C(=O)[C@H](C)O)CC2)sc2c(N3CCOCC3)nc(-c3cnc(N)nc3)nc12 [APITOLISIB],> 20,> 20
NCCCN,> 20,> 20
CCC(COC(=O)c1cc(OC)c(OC)c(OC)c1)(c1ccccc1)N(C)C (centres undefined) [TRIMEBUTINE],> 20,> 20
CCC(=O)OC1(c2ccccc2)CCN(C)C1C (centres undefined) [PRODILIDINE],> 20,> 20
CN(C)C(=O)CCSC(SCCC(=O)O)c1cccc(/C=C/c2ccc3ccc(Cl)cc3n2)c1 (centres undefined) [MK-571],> 20,> 20
CNC(=C[N+](=O)[O-])NCCSCc1csc(CN(C)C)n1 [NIZATIDINE],> 20,> 20
N=C(N)Nc1ccc(C(=O)Oc2ccc3c(c2)OC[C@H]3CC(=O)N[C@@H](CC(=O)O)C(=O)O)cc1,> 20,> 20
CCC(OC(C)=O)C(CC(C)NC)(c1ccccc1)c1ccccc1 (centres undefined) [NORACYMETHADOL],> 20,> 20
CCC(C)CCCCC(=O)N[C@@H](CCNCS(=O)(=O)O)C(=O)N[C@H](C(=O)N[C@@H](CCNCS(=O)(=O)O)C(=O)N[C@H]1CCNC(=O)[C@H]([C@@H](C)O)NC(=O)[C@@H](CCNCS(=O)(=O)O)NC(=O)[C@@H](CCNCS(=O)(=O)O)NC(=O)[C@H](CC(C)C)NC(=O)[C@@H](CC(C)C)NC(=O)[C@H](CCNCS(=O)(=O)O)NC1=O)[C@@H](C)O (some centres undefined),> 20,> 20
C#C[C@]1(O)CC[C@H]2[C@@H]3CCC4=CC(=O)CC[C@@H]4[C@H]3CC[C@@]21C [NORETHINDRONE],> 20,> 20

SMILES,IC50 [µM],IC50 (read-out: pIC50 (converted)) [µM]
CN(C)CCc1c[nH]c2ccc(O)cc12 [BUFOTENINE],> 20,> 20
C/C=C1/C[N+]2(C)CCC34C(=C(C=O)[C@H]1C[C@@H]32)Nc1ccccc14 (some centres undefined),> 20,> 20
C[C@@H]1O[C@@H](O[C@H]2C[C@@H](O)[C@]3(CO)[C@H]4[C@H](O)C[C@]5(C)[C@@H](C6=CC(=O)OC6)CC[C@]5(O)[C@@H]4CC[C@]3(O)C2)[C@H](O)[C@H](O)[C@H]1O [OUABAIN],> 20,> 20
CC(=O)O[C@@H]1C[C@H]2C(C)(C)C(=O)C=C[C@]2(C)[C@H]2CC[C@@]3(C)[C@H](c4ccoc4)OC(=O)[C@H]4O[C@]43[C@@]21C [GEDUNIN],> 20,> 20
CC(O)CC(C)(C)O (centres undefined) [HEXYLENE GLYCOL],> 20,> 20
COc1cc2ncnc(Nc3cccc(Br)c3)c2cc1OC,> 20,> 20
CC1NCCc2c1[nH]c1ccccc21 (centres undefined) [TETRAHYDROHARMAN],> 20,> 20
O=C1CCCO1 [BUTYROLACTONE],> 20,> 20
CC(CN(C)C)CN1c2ccccc2CCc2ccccc21 (centres undefined) [TRIMIPRAMINE],> 20,> 20
CN1C2CCCC1CC(=O)C2,> 20,> 20
N#CC(O[C@@H]1O[C@H](CO[C@@H]2O[C@H](CO)[C@@H](O)[C@H](O)[C@H]2O)[C@@H](O)[C@H](O)[C@H]1O)c1ccccc1 (some centres undefined) [VITAMIN B17],> 20,> 20
COc1cc2nc(N(C)CCCNC(=O)C3CCCO3)nc(N)c2cc1OC (centres undefined) [ALFUZOSIN],> 20,> 20
C#CCN(C)CCCOc1ccc(Cl)cc1Cl [CLORGILINE],> 20,> 20
CCOC(=O)C(=O)Nc1nc(-c2ccc(OC)cc2)cs1 [TIOXAMAST],> 20,> 20
CC(=O)Nc1ccc(S(=O)(=O)c2ccc(NC(C)=O)cc2)cc1 [ACEDAPSONE],> 20,> 20
C[N+]1(C)C2CCC1CC(OC(=O)C(O)c1ccccc1)C2 (centres undefined),> 20,> 20
COc1cccc(C2(CCCN(C)C)C(=O)NC(=O)CC2(C)C)c1 (centres undefined),> 20,> 20
OC[C@@H](O)[C@@H](O)[C@H](O)[C@@H](O)CO [SORBITOL],> 20,> 20
